pIC50: −log10 of the molar value.
Experiments:
in vitro = details: PAMPA
Acetylcholinesterase [1] = target: Acetylcholinesterase (Electrophorus electricus, UniProt O42275); assay: Inhibition of electric eel AChE using acetylthiocholine iodide as substrate incubated for 15 mins by Ellman's method
[2] = Lipophilicity, log P of the compound; format: physicochemical; details: octanol/water
Acetylcholinesterase [3] = target: Acetylcholinesterase (Homo sapiens, UniProt P22303)
Description: Inhibition of AChE (unknown origin)

physchem = details: octanol/water
Description: Lipophilicity, log D of compound

Acetylcholinesterase (Electrophorus electricus, UniProt O42275), sequence (O42275 whole entry): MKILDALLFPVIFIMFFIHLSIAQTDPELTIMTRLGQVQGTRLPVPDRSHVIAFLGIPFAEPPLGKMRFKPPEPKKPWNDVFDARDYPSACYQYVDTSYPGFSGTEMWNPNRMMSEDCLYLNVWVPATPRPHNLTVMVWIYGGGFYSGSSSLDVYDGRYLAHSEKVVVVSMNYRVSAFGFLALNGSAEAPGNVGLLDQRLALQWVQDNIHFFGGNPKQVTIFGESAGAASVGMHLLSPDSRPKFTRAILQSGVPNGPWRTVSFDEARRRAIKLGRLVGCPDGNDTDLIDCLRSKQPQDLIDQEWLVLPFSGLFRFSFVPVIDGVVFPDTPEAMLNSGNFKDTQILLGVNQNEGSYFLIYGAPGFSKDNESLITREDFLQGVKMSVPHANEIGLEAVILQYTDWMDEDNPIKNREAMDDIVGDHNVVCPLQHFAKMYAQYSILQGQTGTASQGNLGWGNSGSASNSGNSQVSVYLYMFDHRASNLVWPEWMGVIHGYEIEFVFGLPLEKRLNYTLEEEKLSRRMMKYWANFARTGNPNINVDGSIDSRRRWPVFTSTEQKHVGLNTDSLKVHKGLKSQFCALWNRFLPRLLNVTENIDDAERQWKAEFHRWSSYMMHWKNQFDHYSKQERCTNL
Acetylcholinesterase (Homo sapiens, UniProt P22303), sequence (P22303 whole entry): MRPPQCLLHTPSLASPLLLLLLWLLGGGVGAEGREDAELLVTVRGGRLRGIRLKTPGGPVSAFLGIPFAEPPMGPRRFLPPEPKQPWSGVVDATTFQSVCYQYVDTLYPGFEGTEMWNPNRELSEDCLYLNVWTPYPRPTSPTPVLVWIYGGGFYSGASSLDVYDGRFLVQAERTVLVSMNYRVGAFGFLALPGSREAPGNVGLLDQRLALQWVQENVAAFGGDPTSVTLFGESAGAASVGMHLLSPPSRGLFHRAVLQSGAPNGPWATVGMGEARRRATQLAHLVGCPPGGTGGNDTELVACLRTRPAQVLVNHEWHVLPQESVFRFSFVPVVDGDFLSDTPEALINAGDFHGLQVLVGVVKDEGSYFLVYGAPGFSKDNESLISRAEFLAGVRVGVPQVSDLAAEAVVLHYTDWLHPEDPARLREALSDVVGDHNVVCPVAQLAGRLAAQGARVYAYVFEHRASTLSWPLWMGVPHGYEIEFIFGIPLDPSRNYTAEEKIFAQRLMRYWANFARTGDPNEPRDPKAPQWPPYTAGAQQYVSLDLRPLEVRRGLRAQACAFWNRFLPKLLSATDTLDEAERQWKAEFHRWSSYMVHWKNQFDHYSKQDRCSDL

Structure (SMILES) | Papp at 8 h (in vitro) [×10⁻⁶ cm/s] | pIC50 (Acetylcholinesterase [1]) | other results
Clc1cccc(Cl)c1N=C1NCCN1 [CLONIDINE] | 12.2 |  | 
COc1cc2c(cc1OC)C(=O)C(CC1CCN(CCCCN)CC1)C2 (centres undefined) |  | 4.84 | 
COc1cc2c(cc1OC)C(=O)C(CC1CCN(C(=O)c3ccccc3)CC1)C2 (centres undefined) |  | 4.75 | 
O=C(c1ccccc1)N1CCC(CCN2C(=O)c3ccccc3C2=O)CC1 |  | 4.20 | 
COc1cc(O)c(C(=O)Nc2nc(C(=O)NCCN(C(C)C)C(C)C)cs2)cc1OC [ACOTIAMIDE] |  |  | logP [2]: < 2; pIC50 (Acetylcholinesterase [3]): 5.52; logD (physchem): 0.7
COc1cc2c(cc1OC)C(=O)C(CC1CCN(CCCN)CC1)C2 (centres undefined) |  | 4.97 | 
COc1cc2c(cc1OC)C(=O)C(CC1CCN(Cc3cccc(N)c3)CC1)C2 (centres undefined) | 3.7 | 7.33 | 
O=C1c2ccccc2C(=O)N1CCC1CCN(Cc2ccccc2)CC1 |  | 7.88 | 
COc1cc2c(cc1OC)C(=O)C(CC1CCNCC1)C2 (centres undefined) |  | 5.02 | 
Nc1cccc(CN2CCC(CCN3C(=O)c4ccccc4C3=O)CC2)c1 | 2.9 | 6.82 | 
Nc1ccc(CN2CCC(CN3C(=O)c4ccccc4C3=O)CC2)cc1 |  | 4.60 | 
NCc1cccc(CN2CCC(CCN3C(=O)c4ccccc4C3=O)CC2)c1 | 1.4 | 6.52 | 
COc1cc2c(cc1OC)C(=O)C(CC1CCN(Cc3ccc(C(=O)O)cc3)CC1)C2 (centres undefined) |  | 4.14 | 
NCc1ccc(CN2CCC(CCN3C(=O)c4ccccc4C3=O)CC2)cc1 |  | 5.81 | 
COc1cc2c(cc1OC)C(=O)C(CC1CCN(CCN)CC1)C2 (centres undefined) |  | 4.95 | 
COc1cc2c(cc1OC)C(=O)C(CC1CCN(Cc3cccc(NC(=O)c4ccccc4)c3)CC1)C2 (centres undefined) |  | 4.64 | 
O=C1c2ccccc2C(=O)N1CC1CCN(Cc2ccccc2)CC1 | 10.7 | 4.64 | 
COc1cc2c(cc1OC)C(=O)C(CC1CCN(Cc3cccc(CN)c3)CC1)C2 (centres undefined) | 1.5 | 5.99 | 
Nc1ccc(CN2CCC(CCN3C(=O)c4ccccc4C3=O)CC2)cc1 |  | 6.49 | 
NCCc1ccc(O)c(O)c1 [DOPAMINE] | 3.3 |  | 
COc1cc2c(cc1OC)C(=O)C(CC1CCN(Cc3ccc(N)cc3)CC1)C2 (centres undefined) |  | 7.00 | 
COc1cc2c(cc1OC)C(=O)C(CC1CCN(Cc3ccc(CN)cc3)CC1)C2 (centres undefined) |  | 5.24 | 

From ChEMBL document CHEMBL5537214 (RSC Med Chem, 2024)
